# Experimental data taken from patent US8288424B2, “Substituted tetrahydroimidazopyridine compounds and the use thereof in the treatment of pain and other conditions” (Gruenenthal GmbH, priority 2008, dated 2012).
# Target: T1, KCNQ2/3 channels (Homo sapiens, UniProt O43525+O43526)
# T1 construct: expressed in transfected cells; host or cells: CHO-K1
# Assay: Fluorescence assay using a voltage-sensitive dye
# Format: cell-based
# Conditions: 10 μmol test substance; CHO-K1 cells expressing KCNQ2/3 channels; agonistic activity; read-out: % Stimulation [10 μmol] Average
# Procedure: Fluorescence Assay Using a Voltage-Sensitive Dye
# […] CHO-K1 cells expressing KCNQ2/3 channels are cultivated adherently at 37° C., 5% CO2 and 95% humidity in cell culture bottles (e.g. 80 cm^2 TC flasks, Nunc) with MEM Alpha Medium (1×, liquid, Invitrogen, #22571), 10% foetal calf serum (FCS) (Invitrogen, #10270-106, heat-inactivated) and the necessary selection antibiotics. Before being spread out for the measurements, the cells are washed with a 1×DPBS buffer without Ca^2+/Mg^2+ (e.g. Invitrogen, #14190-094) and detached from the bottom of the culture vessel by means of Accutase (PAA Laboratories, #L11-007) (incubation with Accutase for 15 min at 37° C.). The cell count then present is determined using a CASY™ cell counter (TCC model, Schärfe System) in order subsequently to apply 20,000 cells/well/100 μl of the described nutrient medium to 96-well measuring plates of the Corning™ CellBIND™ type (flat clear-bottom black polystyrene microplates, #3340). Incubation is then carried out for one hour at room temperature, without gassing or adjusting the humidity, followed by incubation for 24 hours at 37° C., 5% CO2 and 95% humidity.
# The voltage-sensitive fluorescent dye from the Membrane Potential Assay Kit (Red bulk format part R8123 for FLIPR, Molecular Devices™) is prepared by dissolving the contents of a vessel of Membrane Potential Assay Kit Red Component A in 200 ml of extracellular buffer (ES buffer, 120 mM NaCl, 1 mM KCl, 10 mM HEPES, 2 mM CaCl2, 2 mM MgCl2, 10 mM glucose; pH 7.4). After removal of the nutrient medium, the cells are washed with 200 μl of ES buffer, then covered with a layer of 100 μl of the dye solution prepared above and incubated for 45 min at room temperature with exclusion of light.
# The fluorescence measurements are carried out with a BMG Labtech FLUOstar™ or BMG Labtech POLARstar™ instrument (525 nm excitation, 560 nm emission, bottom-read mode). After incubation of the dye, 50 μl of the substances to be tested in the desired concentrations, or 50 μl of ES buffer for control purposes, are introduced into separate cavities of the measuring plate and incubated for 30 min at room temperature whilst being shielded from light. The fluorescence intensity of the dye is then measured for 5 min and the fluorescence value F1 of each well is thus determined at a given, constant time. 15 μl of a […] KCl solution ([…]) are then added to each well. The change in fluorescence is subsequently measured until all relevant measured values have been obtained (mainly 5-30 min). At a given time after KCl application, a fluorescence value F2 is determined, in this case at the time of the fluorescence peak.
# For calculation, the fluorescence intensity F2 is compared with the fluorescence intensity F1, and the agonistic activity of the target compound on the potassium channel is determined therefrom. F2 and F1 are calculated as follows:
# [formula] In order to determine whether a substance has an agonistic activity,
# [formula] for example, can be compared with
# [formula] of control cells.
# [formula] is determined by adding to the reaction batch only the buffer solution instead of the substance to be tested, determining the value F1K of the fluorescence intensity, adding the potassium ions as described above and measuring a value F2K of the fluorescence intensity. Then F2K and F1K are calculated as follows:
# [formula] A substance has an agonistic activity on the potassium channel when
# [formula] is greater than
# [formula] Independently of the comparison of
# [formula] it is also possible to conclude that a target compound has an agonistic activity if an increase in
# [formula] is to be observed as the dosage of the target compound increases. Calculations of EC50 and IC50 values are carried out with the aid of Prism 4 software (GraphPad Software™).
row,Compound,activation at 10 µM [%]
1,"Cc1cc(C2CCc3nc(C(=O)N4CCN(Cc5ccccc5)CC4)cn3C2)ccc1F (centres unmarked) [Compound 80, (4-Benzylpiperazin-1-yl)(6-(4-fluoro-3-methylphenyl)-5,6,7,8-tetrahydroimidazo[1,2-a]pyridin-2-yl)methanone]",33.1
2,"Cc1ccc(C2CCc3nc(C(=O)N4CCN(c5cccc(C(F)(F)F)c5)CC4)cn3C2)cc1 (centres unmarked) [Compound 74, (6-p-Tolyl-5,6,7,8-tetrahydroimidazo[1,2-a]pyridin-2-yl)(4-(3-(trifluoromethyl)phenyl)piperazin-1-yl)methanone]",51.9
3,"Cc1ccccc1C1CCc2nc(C(=O)N3CCN(c4cccc(C(F)(F)F)c4)CC3)cn2C1 (centres unmarked) [Compound 35, (6-o-Tolyl-5,6,7,8-tetrahydroimidazo[1,2-a]pyridin-2-yl)(4-(3-(trifluoromethyl)-phenyl)piperazin-1-yl)methanone]",20.9
4,"CCC(C)NC(=O)c1cn2c(n1)CCC(c1ccc(Oc3ccccc3)cc1)C2 (centres unmarked) [Compound 18, N-sec-Butyl-6-(4-phenoxyphenyl)-5,6,7,8-tetrahydroimidazo[1,2-a]pyridine-2-carboxamide]",18.6
5,"COc1ccc(OC)c(C2CCc3nc(C(=O)N4CC5(C)CC4CC(C)(C)C5)cn3C2)c1 (centres unmarked) [Compound 12, (6-(2,5-Dimethoxyphenyl)-5,6,7,8-tetrahydroimidazo[1,2-a]pyridin-2-yl)(1,3,3-trimethyl-6-azabicyclo[3.2.1]octan-6-yl)methanone]",51.8
6,"O=C(NCc1ccc2c(c1)OCO2)c1cn2c(n1)CCC(c1cc(C(F)(F)F)cc(C(F)(F)F)c1)C2 (centres unmarked) [Compound 42, N-(Benzo[d][1,3]dioxol-5-ylmethyl)-6-(3,5-bis(trifluoromethyl)phenyl)-5,6,7,8-tetrahydroimidazo[1,2-a]pyridine-2-carboxamide]",18.1
7,"COc1c(C)cc(C2CCc3nc(C(=O)NCc4ccc(F)cc4)cn3C2)cc1C (centres unmarked) [Compound 49, N-(4-Fluorobenzyl)-6-(4-methoxy-3,5-dimethylphenyl)-5,6,7,8-tetrahydroimidazo-[1,2-a]pyridine-2-carboxamide]",15.1
8,"O=C(c1cn2c(n1)CCC(c1cccc(F)c1)C2)N1CCC(Cc2ccccc2)CC1 (centres unmarked) [Compound 61, (4-Benzylpiperidin-1-yl)(6-(3-fluorophenyl)-5,6,7,8-tetrahydroimidazo[1,2-a]pyridin-2-yl)methanone]",82.2
9,"Cc1cc(C2CCc3nc(C(=O)N4CC5(C)CC4CC(C)(C)C5)cn3C2)ccc1F (centres unmarked) [Compound 84, (6-(4-Fluoro-3-methylphenyl)-5,6,7,8-tetrahydroimidazo[1,2-a]pyridin-2-yl)(1,3,3-trimethyl-6-azabicyclo[3.2.1]octan-6-yl)methanone]",37.9
10,"CC1(C)CC2CC(C)(CN2C(=O)c2cn3c(n2)CCC(c2cccc(F)c2)C3)C1 (centres unmarked) [Compound 4, (6-(3-Fluorophenyl)-5,6,7,8-tetrahydroimidazo[1,2-a]pyridin-2-yl)(1,3,3-trimethyl-6-azabicyclo[3.2.1]octan-6-yl)methanone]",20.7
11,"COc1cccc(C2CCc3nc(C(=O)N4CCC(Cc5ccccc5)CC4)cn3C2)c1 (centres unmarked) [Compound 50, (4-Benzylpiperidin-1-yl)(6-(3-methoxyphenyl)-5,6,7,8-tetrahydroimidazo[1,2-a]pyridin-2-yl)methanone]",25.7
12,"CC1(C)CC2CC(C)(CN2C(=O)c2cn3c(n2)CCC(c2ccccc2)C3)C1 (centres unmarked) [Compound 3, (6-Phenyl-5,6,7,8-tetrahydroimidazo[1,2-a]pyridin-2-yl)(1,3,3-trimethyl-6-azabicyclo[3.2.1]octan-6-yl)methanone]",16.7
13,"O=C(c1cn2c(n1)CCC(c1ccc(F)cc1)C2)N1CCN(c2cccc(C(F)(F)F)c2)CC1 (centres unmarked) [Compound 47, (6-(4-Fluorophenyl)-5,6,7,8-tetrahydroimidazo[1,2-a]pyridin-2-yl)(4-(3-(trifluoromethyl)phenyl)piperazin-1-yl)methanone]",63.5
14,Cc1ccc(C2CCc3nc(C(=O)N4CCC(Cc5ccccc5)CC4)cn3C2)cc1 (centres unmarked) [Compound 73],88.8
15,"Cc1cc(C2CCc3nc(C(=O)N4CCN(c5ccccc5F)CC4)cn3C2)ccc1F (centres unmarked) [Compound 13, (6-(4-Fluoro-3-methylphenyl)-5,6,7,8-tetrahydroimidazo[1,2-a]pyridin-2-yl)(4-(2-fluorophenyl)piperazin-1-yl)methanone]",18
16,"COc1ccc(C2CCc3nc(C(=O)NCc4cccc(C(F)(F)F)c4)cn3C2)cc1 (centres unmarked) [Compound 39, 6-(4-Methoxyphenyl)-N-(3-(trifluoromethyl)benzyl)-5,6,7,8-tetrahydroimidazo[1,2-a]pyridine-2-carboxamide]",17.8
17,"O=C(c1cn2c(n1)CCC(c1ccc(OCc3ccccc3)cc1)C2)N1CCN(c2cccc(C(F)(F)F)c2)CC1 (centres unmarked) [Compound 82, (6-(4-(Benzyloxy)phenyl)-5,6,7,8-tetrahydroimidazo[1,2-a]pyridin-2-yl)(4-(3-(trifluoromethyl)phenyl)piperazin-1-yl)methanone]",32.7
18,"Cc1cccc(C2CCc3nc(C(=O)N4CCCC4)cn3C2)c1 (centres unmarked) [Compound 29, Pyrrolidin-1-yl(6-m-tolyl-5,6,7,8-tetrahydroimidazo[1,2-a]pyridin-2-yl)methanone]",26.2
19,"CCCCCNC(=O)c1cn2c(n1)CCC(c1cc(C)c(OC)c(C)c1)C2 (centres unmarked) [Compound 15, 6-(4-Methoxy-3,5-dimethylphenyl)-N-pentyl-5,6,7,8-tetrahydroimidazo[1,2-a]pyridine-2-carboxamide]",16.8
20,"CCc1ccc(C2CCc3nc(C(=O)N4CCC(Cc5ccccc5)CC4)cn3C2)cc1 (centres unmarked) [Compound 11, (4-Benzylpiperidin-1-yl)(6-(4-ethylphenyl)-5,6,7,8-tetrahydroimidazo[1,2-a]pyridin-2-yl)methanone]",38.5
21,"COc1ccccc1N1CCN(C(=O)c2cn3c(n2)CCC(c2cc(C)c(OC)c(C)c2)C3)CC1 (centres unmarked) [Compound 10, (6-(4-Methoxy-3,5-dimethylphenyl)-5,6,7,8-tetrahydroimidazo[1,2-a]pyridin-2-yl)(4-(2-methoxyphenyl)piperazin-1-yl)methanone]",15.7

# Same assay, conditions: CHO-K1 cells expressing KCNQ2/3 channels; agonistic activity
row,Compound,EC50 [µM]
1,"O=C(c1cn2c(n1)CCC(c1ccc(Oc3ccccc3)cc1)C2)N1CCCC1 (centres unmarked) [Compound 25, (6-(4-Phenoxyphenyl)-5,6,7,8-tetrahydroimidazo[1,2-a]pyridin-2-yl)(pyrrolidin-1-yl)methanone]",2.33
2,"COc1cccc(C2CCc3nc(C(=O)NC(C)CCc4ccccc4)cn3C2)c1 (centres unmarked) [Compound 60, 6-(3-Methoxyphenyl)-N-(4-phenylbutan-2-yl)-5,6,7,8-tetrahydroimidazo[1,2-a]pyridine-2-carboxamide]",6.4
3,"CCCCCNC(=O)c1cn2c(n1)CCC(c1ccc(Oc3ccccc3)cc1)C2 (centres unmarked) [Compound 28, N-Pentyl-6-(4-phenoxyphenyl)-5,6,7,8-tetrahydroimidazo[1,2-a]pyridine-2-carboxamide]",9.38
4,"Cc1cc(C2CCc3nc(C(=O)N4CCN(c5cccc(C(F)(F)F)c5)CC4)cn3C2)ccc1F (centres unmarked) [Compound 58, (6-(4-Fluoro-3-methylphenyl)-5,6,7,8-tetrahydroimidazo[1,2-a]pyridin-2-yl)(4-(3-(trifluoromethyl)phenyl)piperazin-1-yl)methanone]",4.46
5,"O=C(NCc1cccnc1)c1cn2c(n1)CCC(c1ccc(Oc3ccccc3)cc1)C2 (centres unmarked) [Compound 24, 6-(4-Phenoxyphenyl)-N-(pyridin-3-ylmethyl)-5,6,7,8-tetrahydroimidazo[1,2-a]pyridine-2-carboxamide]",6.14
